The record followed here is BindingDB's records for PubMed 8930187 (Leiden University, 1996).

pKi: −log10 of the molar value.

This assay deals with Gamma-aminobutyric acid receptor subunit alpha-1 (Rattus norvegicus, UniProt P62813).
Sequence of Gamma-aminobutyric acid receptor subunit alpha-1 (P62813 whole entry): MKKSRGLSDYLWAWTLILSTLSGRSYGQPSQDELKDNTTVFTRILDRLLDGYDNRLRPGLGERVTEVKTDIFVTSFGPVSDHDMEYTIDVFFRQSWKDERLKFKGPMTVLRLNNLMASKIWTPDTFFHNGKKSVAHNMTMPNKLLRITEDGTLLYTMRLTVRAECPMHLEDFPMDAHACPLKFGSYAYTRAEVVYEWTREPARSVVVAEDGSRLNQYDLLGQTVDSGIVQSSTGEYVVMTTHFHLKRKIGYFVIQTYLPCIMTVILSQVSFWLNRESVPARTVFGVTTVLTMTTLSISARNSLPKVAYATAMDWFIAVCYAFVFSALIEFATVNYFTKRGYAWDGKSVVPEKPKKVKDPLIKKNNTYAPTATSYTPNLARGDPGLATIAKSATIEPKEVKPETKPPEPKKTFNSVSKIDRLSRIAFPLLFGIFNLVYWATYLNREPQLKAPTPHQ
By pKi is commonly meant −log10 of the Ki, conventionally taken in molar units. Regarding `O=C1Nc2ccc(Cl)cc2C(c2ccccc2)=NC1O` (centres undefined) [CAS_604-75-1], the negative logarithm of the Ki (pKi) is 6.46.
The same measure for `Cc1ncc2n1-c1ccc(Cl)cc1C(c1ccccc1F)=NC2` [12-chloro-9-(2-fluorophenyl)-3-methyl-2,4,8-triazatricyclo[8.4.0.0^{2,6}]tetradeca-1(10),3,5,8,11,13-hexaene]: 7.59; for `CN1C(=O)CN=C(c2ccccc2F)c2cc([N+](=O)[O-])ccc21` [Flunitrazepam]: 7.54.
The same measure for `O=C1CN=C(c2ccccc2Cl)c2cc([N+](=O)[O-])ccc2N1` [5-(2-chlorophenyl)-7-nitro-1,3-dihydro-2H-1,4-benzodiazepin-2-one]: 7.57.
